Laboratory results from patent publication US4217274A, “Methoxyethoxymethyl esters of penicillins” (Bristol-Myers Company, priority 1978, dated 1980).
Converted amounts (≈) assume the structure as drawn. Read-outs that look alike come from different tables or passages of the source.

Tests used:
Test in all cases: MIC, antibiotic dilution technique (agar)
E. Coli = format: cell-based; conditions: Escherichia coli, Table 1, E. Coli
Description: (§1) Bacteria. The organisms, preponderantly of recent clinical origin, were obtained from numerous sources of broad geographical distribution. Obligate anaerobes were maintained in Egg Meat Medium (Difco); Mycobacterium was stored on Lowenstein Medium (Jensen Modification; Difco). The techniques of storing all other organisms have been described previously [Leitner et al., BL-S640, A Cephalosporin with a Broad Spectrum of Antibacterial Activity: Properties in vitro, Antimicrob. Agents Chemother., 7, 298-305 (1975)].
(§2) Antibiotic spectrum. The growth-inhibitory activity of the compounds was determined by the antibiotic dilution technique. Procedures were as follows:
(§3) Aerobic organisms (excluding Mycobacterium). Except for Haemophilus and Neisseria, the assay was performed in Mueller-Hinton Medium (Difco). For fastidious organisms, i.e., Streptococcus, Listeria, Pasteurella, Bordetella and Vibrio, the medium was supplemented with 4% defibrinated sheep blood. The antibiotic susceptibility of Haemophilus and Neisseria was determined in GC Medium Base (BBL) supplemented with 1% Hemoglobin (BBL) and 1% Isovitalex (BBL).
(§4) Overnight broth cultures of an exponentially growing culture (Neisseria) served as the source of inoculum. A volume of approximately 0.003 ml. of the undiluted or diluted culture was applied to the surface of the antibiotic-containing agar plates with the inoculator of Steers et al., An Inocula Replicating Apparatus for Routine Testing of Bacterial Susceptibility to Antibiotics, Antibiot. Chemother., 9, 307-311, (1959). Cultures of Neisseria, Streptococcus pneumoniae, S. viridans and S. pyogenes were used without dilution; those of all other organisms were diluted 100-fold. The inoculum contained about 10^3 viable cells for Neisseria, 10^5 for S. pneumoniae and S. pyogenes, 10^6 for S. viridans and 10^4 for all other species.

Ser. marcescens = format: cell-based; conditions: Serratia marcescens; Table 1, Ser. marcescens
Description: as §1, §2, §3, §4

Pr. rettgeri = format: cell-based; conditions: Providencia rettgeri; Table 1, Pr. rettgeri
Description: as §1, §2, §3, §4

Str. pneumoniae = format: cell-based; conditions: Streptococcus pneumoniae; Table 1, Str. pneumoniae
Description: as §1, §2, §3, §4

Str. faecalis = format: cell-based; conditions: Enterococcus faecalis; Table 1, Str. faecalis
Description: as §1, §2, §3, §4

S. aureus Meth-Res. = format: cell-based; conditions: Staphylococcus aureus; Table 1, S. aureus Meth-Res.
Description: as §1, §2, §3, §4

S. aureus Pen-Res. = format: cell-based; conditions: Staphylococcus aureus; Table 1, S. aureus Pen-Res.; read-out: MIC
Description: as §1, §2, §3, §4

Pr. vulgaris = format: cell-based; conditions: Proteus vulgaris; Table 1, Pr. vulgaris
Description: as §1, §2, §3, §4

K. pneumoniae = format: cell-based; conditions: Klebsiella pneumoniae, Table 1, K. pneumoniae, read-out: MIC
Description: as §1, §2, §3, §4

Pr. mirabilis = format: cell-based; conditions: Proteus mirabilis; Table 1, Pr. mirabilis
Description: as §1, §2, §3, §4

Ps. aeruginosa = format: cell-based; conditions: Pseudomonas aeruginosa, Table 1, Ps. aeruginosa, read-out: MIC
Description: as §1, §2, §3, §4

S. aureus = format: cell-based; conditions: Staphylococcus aureus
Description: as §1, §2, §3, §4

Ent. cloacae = format: cell-based; conditions: Enterobacter cloacae, Table 1, Ent. cloacae, read-out: MIC
Description: as §1, §2, §3, §4

Pr. morganii = format: cell-based; conditions: Morganella morganii; Table 1, Pr. morganni; read-out: MIC
Description: as §1, §2, §3, §4

Str. pyogenes = format: cell-based, S. pyogenes; conditions: Streptococcus pyogenes; Table 1, Str. pyogenes
Description: as §1, §2, §3, §4

**Q.** Which MIC (E. Coli; first line) does the source give for `CC1(C)S[C@@H]2[C@H](N3C(=O)[C@@H](c4ccccc4)NC3(C)C)C(=O)N2[C@H]1C(=O)O` [Hetacillin, hetacillin] here?
**A.** 1 µg/mL (≈ 2.57 µM)

**Q.** What about the MIC (E. Coli; second line) of the same compound?
**A.** 32 µg/mL (≈ 82.2 µM)

**Q.** What about the MIC (Ser. marcescens) of the same compound?
**A.** 16 µg/mL (≈ 41.1 µM)

**Q.** And the MIC (Pr. rettgeri)?
**A.** 8 µg/mL (≈ 20.5 µM)

**Q.** What about the MIC (Str. pneumoniae) of the same compound?
**A.** 0.004 µg/mL (≈ 0.0103 µM)

**Q.** What about the MIC (Str. faecalis) of the same compound?
**A.** 0.13 µg/mL (≈ 0.334 µM)

**Q.** And the MIC (S. aureus Meth-Res.)?
**A.** 16 µg/mL (≈ 41.1 µM)

**Q.** And the MIC (S. aureus Pen-Res.)?
**A.** 125 µg/mL (≈ 321 µM)

**Q.** What about the MIC (Pr. vulgaris) of the same compound?
**A.** 0.06 µg/mL (≈ 0.154 µM)

**Q.** And the MIC (K. pneumoniae; first line)?
**A.** 63 µg/mL (≈ 162 µM)

**Q.** And the MIC (K. pneumoniae; second line)?
**A.** 63 µg/mL (≈ 162 µM)

**Q.** What about the MIC (Pr. mirabilis) of the same compound?
**A.** 0.03 µg/mL (≈ 0.077 µM)

**Q.** And the MIC (Ps. aeruginosa; first line)?
**A.** 63 µg/mL (≈ 162 µM)

**Q.** And the MIC (Ps. aeruginosa; second line)?
**A.** 125 µg/mL (≈ 321 µM)

**Q.** And the MIC (S. aureus; Table 1, S. aureus)?
**A.** 0.008 µg/mL (≈ 0.0205 µM)

**Q.** What about the MIC (S. aureus; Table 1, S. aureus + 50% serum) of the same compound?
**A.** 0.016 µg/mL

**Q.** And the MIC (Ent. cloacae; first line)?
**A.** 32 µg/mL (≈ 82.2 µM)

**Q.** And the MIC (Ent. cloacae; second line)?
**A.** 63 µg/mL (≈ 162 µM)

**Q.** And the MIC (Pr. morganii)?
**A.** 16 µg/mL (≈ 41.1 µM)

**Q.** And the MIC (Str. pyogenes)?
**A.** 0.004 µg/mL (≈ 0.0103 µM)
